PubChem BioAssay (NCI)
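Exposure lasted 48 hours, with cells grown in 96-well plates and compounds tested at five concentrations. GI50 marks 50% less growth. TGI denotes the concentration required for complete inhibition of growth.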

Assays:
Assay in all cases: NCI tumour cell line growth inhibition, 48 h
[1] = system: SW-620 colon
[2] = system: SF-268 CNS
[3] = system: MDA-MB-231 breast
[4] = system: KM12 colon
[5] = system: A549 NSCLC
[6] = system: DU-145 prostate
[7] = system: IGROV1 ovarian
[8] = system: HS 578T breast
[9] = system: UACC-257 melanoma
[10] = system: SK-OV-3 ovarian
[11] = system: SK-MEL-5 melanoma
[12] = system: M14 melanoma
[13] = system: HL-60(TB) leukemia
[14] = system: HOP-62 NSCLC
[15] = system: NCI-H460 lung
[16] = system: MCF7 breast
[17] = system: U251 CNS
[18] = system: HOP-92 NSCLC
[19] = system: COLO 205 colon
[20] = system: HCT-15 colon
[21] = system: PC-3 prostate
[22] = system: SK-MEL-28 melanoma
[23] = system: SK-MEL-2 melanoma
[24] = system: SNB-75 CNS
[25] = system: LOX IMVI melanoma
[26] = system: SN12C renal
[27] = system: TK-10 renal
[28] = system: HT29 colon
[29] = system: MOLT-4 leukemia
[30] = system: NCI-H226 lung
[31] = system: OVCAR-8 ovarian
[32] = system: RPMI-8226 leukemia
[33] = system: UO-31 renal
[34] = system: SNB-19 CNS
[35] = system: UACC-62 melanoma
[36] = system: K-562 leukemia
[37] = system: RXF 393 renal
[38] = system: HCT-116 colon
[39] = system: BT-549 breast
[40] = system: OVCAR-5 ovarian
[41] = system: SF-539 CNS
[42] = system: NCI/ADR-RES ovarian
[43] = system: A498 renal
[44] = system: NCI-H23 lung
[45] = system: EKVX NSCLC
[46] = system: 786-0 renal
[47] = system: ACHN renal
[48] = system: MDA-MB-435
[49] = system: HCC-2998 colon
[50] = system: OVCAR-4 ovarian
[51] = system: CCRF-CEM leukemia
[52] = system: OVCAR-3 ovarian
[53] = system: CAKI-1 renal
[54] = system: NCI-H522 lung
[55] = system: SR leukemia
[56] = system: SF-295 CNS
[57] = system: MALME-3M melanoma

COc1ccc2c(c1)SC1=NNC(Cl)C(=O)N12 (configuration not stated)
GI50 [1]: 21.8 µM
TGI [1]: 65.7 µM
GI50 [2]: 24.2 µM
TGI [2]: 62.1 µM
GI50 [3]: 15.3 µM
TGI [3]: 35.6 µM
GI50 [4]: 20.7 µM
TGI [4]: 48 µM
GI50 [5]: 38.1 µM
TGI [5]: > 100 µM
GI50 [6]: 12.8 µM
TGI [6]: 30.3 µM
GI50 [7]: 25.2 µM
TGI [7]: > 100 µM
GI50 [8]: 40.4 µM
TGI [8]: > 100 µM
GI50 [9]: 18.2 µM
TGI [9]: 42.5 µM
GI50 [10]: 33 µM
TGI [10]: > 100 µM
GI50 [11]: 15.6 µM
TGI [11]: 34 µM
GI50 [12]: 17.3 µM
TGI [12]: 48.4 µM
GI50 [13]: 33.9 µM
TGI [13]: > 100 µM
GI50 [14]: 45.5 µM
TGI [14]: > 100 µM
GI50 [15]: 29.5 µM
TGI [15]: > 100 µM
GI50 [16]: 24.5 µM
TGI [16]: > 100 µM
GI50 [17]: 18.9 µM
TGI [17]: 45.1 µM
GI50 [18]: 20.1 µM
TGI [18]: 56.2 µM
GI50 [19]: 16.7 µM
TGI [19]: 44.3 µM
GI50 [20]: 15.8 µM
TGI [20]: 38.4 µM
GI50 [21]: 37 µM
TGI [21]: > 100 µM
GI50 [22]: 13.7 µM
TGI [22]: 35.2 µM
GI50 [23]: 42.1 µM
TGI [23]: > 100 µM
GI50 [24]: 30.3 µM
TGI [24]: 83.5 µM
GI50 [25]: 16 µM
TGI [25]: 37.4 µM
GI50 [26]: 16.5 µM
TGI [26]: 37.3 µM
GI50 [27]: 26.6 µM
TGI [27]: 81.1 µM
GI50 [28]: 11.8 µM
TGI [28]: 35.1 µM
GI50 [29]: 31.2 µM
TGI [29]: > 100 µM
GI50 [30]: 16.2 µM
TGI [30]: 64.3 µM
GI50 [31]: 21.5 µM
TGI [31]: 54.2 µM
GI50 [32]: 18.2 µM
TGI [32]: 54.1 µM
GI50 [33]: 5.9 µM
TGI [33]: > 100 µM
GI50 [34]: 38.4 µM
TGI [34]: > 100 µM
GI50 [35]: 15.6 µM
TGI [35]: 36 µM
GI50 [36]: 35.3 µM
TGI [36]: > 100 µM
GI50 [37]: 18.4 µM
TGI [37]: 59.1 µM
GI50 [38]: 24 µM
TGI [38]: 87.3 µM
GI50 [39]: 17.2 µM
TGI [39]: 40.6 µM
GI50 [40]: 27.9 µM
TGI [40]: 94.1 µM
GI50 [41]: 15.6 µM
TGI [41]: 37.8 µM
GI50 [42]: 19.8 µM
TGI [42]: 47.6 µM
GI50 [43]: 26.1 µM
TGI [43]: 53.3 µM
GI50 [44]: 18 µM
TGI [44]: 39.6 µM
GI50 [45]: 10.5 µM
TGI [45]: 29.1 µM
GI50 [46]: 33.2 µM
TGI [46]: > 100 µM
GI50 [47]: 12.4 µM
TGI [47]: 26.3 µM

O=C1C=C(Nc2ccc([N+](=O)[O-])cc2)c2ccccc2C1=O
GI50 [1]: 2.47 µM
TGI [1]: 15.5 µM
GI50 [2]: 5.39 µM
TGI [2]: 20.6 µM
GI50 [3]: 1.72 µM
TGI [3]: 13.2 µM
GI50 [4]: 3.3 µM
TGI [4]: 16.4 µM
GI50 [48]: 0.392 µM
TGI [48]: 1.41 µM
GI50 [5]: 3.96 µM
TGI [5]: 16.5 µM
GI50 [6]: 6.94 µM
TGI [6]: 19.6 µM
GI50 [7]: 5.99 µM
TGI [7]: 20.8 µM
GI50 [8]: 1.78 µM
TGI [8]: 9.96 µM
GI50 [9]: 3.14 µM
TGI [9]: 13.8 µM
GI50 [10]: 11.6 µM
TGI [10]: 27.1 µM
GI50 [11]: 1.56 µM
TGI [11]: 3.47 µM
GI50 [49]: 9.09 µM
TGI [49]: 22.4 µM
GI50 [50]: 2.07 µM
TGI [50]: 11.2 µM
GI50 [12]: 3.49 µM
TGI [12]: 16.7 µM
GI50 [13]: 2.67 µM
TGI [13]: 7.19 µM
GI50 [14]: 5.69 µM
TGI [14]: 19.6 µM
GI50 [15]: 4.45 µM
TGI [15]: 17.2 µM
GI50 [16]: 2.49 µM
TGI [16]: 13.9 µM
GI50 [17]: 3.07 µM
TGI [17]: 12.9 µM
GI50 [19]: 17.4 µM
TGI [19]: 34.8 µM
GI50 [20]: 2.42 µM
TGI [20]: 15.4 µM
GI50 [21]: 3.7 µM
TGI [21]: 47.1 µM
GI50 [22]: 3.75 µM
TGI [22]: 16.6 µM
GI50 [23]: 2.12 µM
TGI [23]: 8.47 µM
GI50 [24]: 1.19 µM
TGI [24]: 9.91 µM
GI50 [25]: 2.34 µM
TGI [25]: 7.47 µM
GI50 [26]: 3.92 µM
TGI [26]: 15.1 µM
GI50 [28]: 18.6 µM
TGI [28]: 42.3 µM
GI50 [29]: 3.55 µM
TGI [29]: 12.7 µM
GI50 [30]: 12.6 µM
TGI [30]: 28.1 µM
GI50 [31]: 2.74 µM
TGI [31]: 12.6 µM
GI50 [32]: 3.37 µM
TGI [32]: 22.4 µM
GI50 [33]: 1.85 µM
TGI [33]: 12.5 µM
GI50 [34]: 4.71 µM
TGI [34]: 18.1 µM
GI50 [35]: 1.9 µM
TGI [35]: 5.88 µM
GI50 [51]: 3.9 µM
TGI [51]: 26 µM
GI50 [36]: 0.569 µM
TGI [36]: 15.3 µM
GI50 [52]: 2.07 µM
TGI [52]: 7.03 µM
GI50 [53]: 3.87 µM
TGI [53]: 19 µM
GI50 [54]: 2.91 µM
TGI [54]: 14.4 µM
GI50 [37]: 6.6 µM
TGI [37]: 22.5 µM
GI50 [38]: 2.79 µM
TGI [38]: 12.4 µM
GI50 [39]: 3.56 µM
TGI [39]: 14.5 µM
GI50 [40]: 13.3 µM
TGI [40]: 27.5 µM
GI50 [55]: 2.55 µM
TGI [55]: > 100 µM
GI50 [41]: 3.5 µM
TGI [41]: 14.7 µM
GI50 [42]: 2.93 µM
TGI [42]: 29.3 µM
GI50 [43]: 1.47 µM
TGI [43]: 6.75 µM
GI50 [46]: 11.6 µM
TGI [46]: 33.8 µM
GI50 [47]: 4.3 µM
TGI [47]: 17.7 µM
GI50 [56]: 4.93 µM
TGI [56]: 18 µM

Cc1ccc(-c2c(C#N)c(-c3ccccc3)c(C#N)c(=O)n2NS(=O)(=O)c2ccc(C)cc2)cc1
TGI [1]: > 100 µM
TGI [2]: > 100 µM
TGI [3]: > 100 µM
TGI [4]: > 100 µM
TGI [48]: > 100 µM
TGI [5]: > 100 µM
TGI [7]: > 100 µM
TGI [8]: > 100 µM
TGI [9]: > 100 µM
TGI [10]: > 100 µM
TGI [11]: 31.9 µM
TGI [49]: > 100 µM
TGI [50]: > 100 µM
TGI [12]: > 100 µM
TGI [14]: > 100 µM
TGI [15]: > 100 µM
TGI [16]: > 100 µM
TGI [17]: > 100 µM
TGI [18]: > 100 µM
TGI [19]: > 100 µM
TGI [20]: > 100 µM
TGI [21]: > 100 µM
TGI [22]: > 100 µM
TGI [23]: > 100 µM
TGI [24]: > 100 µM
TGI [25]: > 100 µM
TGI [26]: > 100 µM
TGI [27]: > 100 µM
TGI [28]: > 100 µM
TGI [29]: 41.1 µM
TGI [30]: > 100 µM
TGI [31]: > 100 µM
TGI [32]: 8.79 µM
TGI [34]: 33.5 µM
TGI [35]: > 100 µM
TGI [51]: 89.7 µM
TGI [57]: > 100 µM
TGI [36]: > 100 µM
TGI [53]: > 100 µM
TGI [54]: > 100 µM
TGI [37]: > 100 µM
TGI [38]: > 100 µM
TGI [39]: > 100 µM
TGI [40]: > 100 µM
TGI [41]: > 100 µM
TGI [42]: > 100 µM
TGI [43]: > 100 µM
TGI [45]: > 100 µM
TGI [46]: > 100 µM
TGI [47]: > 100 µM
TGI [56]: > 100 µM

CCCc1n(Cc2ccc3ccccc3c2)c2ccccc2[n+]1Cc1ccc2ccccc2c1
GI50 [1]: 0.429 µM
TGI [1]: 1.7 µM
GI50 [3]: 0.301 µM
TGI [3]: 1.42 µM
GI50 [48]: 0.314 µM
TGI [48]: 1.26 µM
GI50 [5]: 0.619 µM
TGI [5]: 2.04 µM
GI50 [6]: 0.554 µM
TGI [6]: 1.85 µM
GI50 [9]: 0.295 µM
TGI [9]: 1.12 µM
GI50 [10]: 0.488 µM
TGI [10]: 1.74 µM
GI50 [11]: 0.161 µM
TGI [11]: 0.311 µM
GI50 [21]: 0.354 µM
TGI [21]: 1.55 µM
GI50 [22]: 0.577 µM
TGI [22]: 1.99 µM
GI50 [27]: 0.461 µM
TGI [27]: 1.68 µM
GI50 [28]: 0.323 µM
TGI [28]: 1.28 µM
GI50 [33]: 1.49 µM
TGI [33]: 3 µM
GI50 [35]: 0.318 µM
TGI [35]: 1.42 µM
GI50 [40]: 0.544 µM
TGI [40]: 1.98 µM
GI50 [42]: 3.56 µM
TGI [42]: 53.9 µM
GI50 [43]: 0.356 µM
TGI [43]: 1.98 µM
GI50 [46]: 1.06 µM
TGI [46]: 2.56 µM
GI50 [47]: 1.25 µM
TGI [47]: 2.57 µM
